Values quoted from earlier work as cited in US7998710B2, “Process for purifying difructose dianhydride III” (Nippon Beet Sugar Mfg., Co., Ltd., priority 2003, dated 2011).

Tests used:
[1] = relative to sucrose
[2] = test system: absorption of minerals such as Ca; settings: Patent Document 1

Structure (SMILES): OC[C@H]1O[C@@]2(CO[C@]3(CO)O[C@H](CO)[C@@H](O)[C@@H]3O2)[C@@H](O)[C@@H]1O [DFA III, α-D-fructofuranose-β-D-fructofuranose-2′,1:2,3′-dianhydride]
- solubility in water compared with that of sucrose [1]: 90-95%
- effect of promoting the absorption of minerals such as Ca [2]: promoting the absorption of minerals such as Ca
